{
  "source": "patent US20050054620A1",
  "about": "“Paricalcitol as a chemotherapeutic agent” (priority 2003, published 2005)",
  "key": {"SW480 colon cancer cells": {"test_system": "SW480 colon cancer cells", "assay": "MTT assay", "type": "cell-based, human", "conditions": "10^−7M, 96 hrs", "protocol": "(§1) HT-29, SW837, SW480 and HCT116 colon cancer cells were treated for 96 hrs with either paricalcitol (10^−7M) 1,25(OH)2D3 (10^−7M) or diluant (control). Growth (% of control) was measured by MTT assay. Results represent the mean±SD of three independent experiments with triplicate dishes. […] were incubated in culture medium for 96 hr in 96 well-plates and […] of MTT solution was added."}, "SW837 colon cancer cells": {"test_system": "SW837 colon cancer cells", "assay": "MTT assay", "type": "cell-based, human", "conditions": "10^−7M, 96 hrs", "protocol": "as §1"}, "HT-29 colon cancer cells": {"test_system": "HT-29 colon cancer cells", "assay": "MTT assay", "type": "cell-based, human", "conditions": "10^−7M, 96 hrs", "protocol": "as §1"}, "[1]": {"test_system": "HCT116 colon cancer cells", "assay": "MTT assay", "type": "cell-based, human", "conditions": "10^−7M, 96 hrs", "protocol": "as §1"}, "HT-29 cells": {"test_system": "HT-29 cells", "assay": "Western blot of cell lysates", "type": "cell-based, human", "conditions": "10^−7M, 72 hrs", "protocol": "Western blot analysis was used to determine the levels of proteins involved in cell cycle and differentiation. […] After centrifugation at 15,000×g for 15 min at 4° C., the suspension was collected. Protein concentrations were quantitated using the Bio-Rad assay (Bio-Rad Labolatories, Hercules, Calif.). […] The blots were developed using the Supersignal West Pico Chemiluminescent Substrate Kit (Pierce, Rockford, Ill.). In FIG. 4B, HT-29 cells were exposed to either paricalcitol (10^−7M) or 1,25(OH)2D3(10^−7M). Cell lysates were prepared after 72 hrs of culture and analyzed by Western blot. The Western blot was probed sequentially with antibodies for p27KIP1, p21WAF1, cyclin D1, c-myc and E-Cadherin (antibodies from Santa Cruz Biotechnology) as described in Example II. Control cells were treated with vehicle alone. The quantity of protein was normalized by comparison to the amount of GAPDH. In FIG. 4C, HT-29 and SW837 cells were cultured with either paricalcitol (10^−7M) or 1,25(OH)2D3 (10^−7M) for 72 hrs. Cell lysates were prepared and analyzed by Western blot which was probed sequentially with antibodies to COX-1 and COX-2 (Santa Cruz Biotechnology). Control cells were treated with vehicle alone. The amount of protein was normalized by comparison to the quantity of GAPDH."}, "24-hydroxylase mRNA [2]": {"test_system": "24-hydroxylase mRNA", "assay": "RT-PCR of 24-hydroxylase mRNA, spleen mononuclear cells of VDR knock-out mice", "type": "cell-based", "conditions": "cells from VDR−/− mice; 10^−8 M", "procedure": "Expression of 24 hydroxylase mRNA was analysed by RT-PCR. The amounts of mRNA were normalized by comparison to 18S RNA. For the PCR analysis, RNA extraction and reverse transcription were done by TRIzole (Invitrogen, Carlsbad, Calif.) and reverse transcriptase (Promega, Madison, Wis.). A twenty-microliter volume of cDNA was prepared from 1 μg of RNA. cDNAs were amplified by PCR with specific primers for 24-hydroxylase and 18S. The cycle number was 25 for 18S and 32 for 24-hydroxylase. PCR product was separated on a 2% agarose gel, stained with ethidium bromide, and photographed.\nIsolated spleens were injected with DMEM (Gibco BRL) plus 10% FCS and crushed with forceps to release cells. Mononuclear cells from bone marrow or spleen were separated by Ficoll-Hypaque density centrifugation (Amersham Pharmacia, Uppsala, Sweden)."}, "24-hydroxylase mRNA [3]": {"test_system": "24-hydroxylase mRNA", "assay": "RT-PCR of 24-hydroxylase mRNA, spleen mononuclear cells of wild type mice", "type": "cell-based", "conditions": "10^−8 M", "protocol": "In FIG. 6B, HT-29 colon cancer cells were treated with paricalcitol (10^−7M) for 0, 6, 12 or 24 hrs and RNA was harvested. Expression of 24 hydroxylase mRNA was analysed by RT-PCR. The amounts of mRNA were normalized by comparison to 18S RNA. In FIG. 6C, mononuclear cells extracted from spleens of either wild type or VDR knock-out mice were treated with paricalcitol (10^−8M) for either 12 or 24 hrs, and RNA was harvested. Expression of 24 hydroxylase mRNA was analysed by RT-PCR. The amounts of mRNA were normalized by comparison to 18S RNA. For the PCR analysis, RNA extraction and reverse transcription were done by TRIzole (Invitrogen, Carlsbad, Calif.) and reverse transcriptase (Promega, Madison, Wis.). A twenty-microliter volume of cDNA was prepared from 1 μg of RNA. cDNAs were amplified by PCR with specific primers for 24-hydroxylase and 18S. The cycle number was 25 for 18S and 32 for 24-hydroxylase. […] The VDR KO Mouse and Colony-Forming Assay was performed as follows. VDR KO mice were generated and genotypes were determined by Southern Blot Analysis as described previously (O'Kelly et al., supra, 2002). For experiments using VDR KO mice, their wild-type (WT) littermates were used as controls. Mice were killed by cervical neck dislocation. […] Colonies were counted after 2 weeks. […]"}, "ARH-77 myeloma cells": {"test_system": "ARH-77 myeloma cells", "assay": "MTT assay", "type": "cell-based, human"}, "[4]": {"assay": "Serum calcium in tumor-bearing nude mice", "type": "in vivo", "conditions": "100 ng/mouse i.p. 3 days a week, after 4 weeks; control 9.5±0.4, not significantly different (p=0.17)", "protocol": "For the mouse studies, BNX nu/nu nude mice at 8 weeks of age were purchased from Harlan Sprangue Dawley, Inc. (Indianapolis, Ind.) and their care was in accord with the guidelines of Cedars-Sinai Research Institute. They were maintained in pathogen-free conditions with irradiated chow. A total of 1×10^6 HT-29 cells in 0.1 ml of Matrigel (Collaborative Biological Products, Bedford, Mass.) were injected s.c. into bilateral flanks of each mouse, resulting in the formation of two tumors per mouse. The mice were blindly randomized to the experimental and control groups. Treatment was started on the day after the injection of […] cells and continued for 6 weeks. The control mice (five) received diluant only and the experimental mice (five) received paricalcitol [100 ng/day, intraperitoneally, 3 days per week (M,W,F)]. Tumor sizes were measured every week and calculated by the formula: A (length)×B (width)×C (height)×0.5236. After 4 weeks, blood was collected for serum calcium. All mice were euthanized at the end of the study, and the tumors were fixed in 10% neutral buffered formalin and embedded in paraffin for histological analysis. The data were analyzed by Student's t test.\nTo measure the serum calcium levels in mice, Sigma Diagnostics calcium reagent (Sigma, MO) containing o-cresolphthalein, which complexes with calcium to form a purple colored complex, was used."}},
  "data": [
    {"compound": "C[C@H](/C=C/[C@H](C)C(C)(C)O)[C@H]1CC[C@H]2/C(=C/C=C3C[C@@H](O)C[C@H](O)C3)CCC[C@]12C", "note": "[paricalcitol, 19-nor-1,25, (OH)2D3]", "values": [
      {"measurement": "growth by MTT assay", "setting": "SW480 colon cancer cells", "value": "either only slightly sensitive or resistant"},
      {"measurement": "growth by MTT assay", "setting": "SW837 colon cancer cells", "value": "sensitive"},
      {"measurement": "growth by MTT assay", "setting": "HT-29 colon cancer cells", "value": "sensitive"},
      {"measurement": "growth by MTT assay", "setting": "[1]", "value": "either only slightly sensitive or resistant"},
      {"measurement": "decrease of COX-2 expression", "setting": "HT-29 cells", "value": 40, "unit": "%"},
      {"measurement": "decrease of c-myc expression", "setting": "HT-29 cells", "value": "~40", "unit": "%"},
      {"measurement": "decrease of cyclin D1 expression", "setting": "HT-29 cells", "value": "about 50%"},
      {"measurement": "effect on COX-1 expression", "setting": "HT-29 cells", "value": "without affecting"},
      {"measurement": "increase of E-cadherin", "setting": "HT-29 cells", "value": "about 6 fold"},
      {"measurement": "increase of p21WAF1 protein level", "setting": "HT-29 cells", "value": "about 5 fold"},
      {"measurement": "increase of p27KIP1 protein level", "setting": "HT-29 cells", "value": "~6", "unit": "fold"},
      {"measurement": "induction of 24-hydroxylase", "setting": "24-hydroxylase mRNA [2]", "value": "not inducible"},
      {"measurement": "time within which 24-hydroxylase mRNA expression was induced", "setting": "24-hydroxylase mRNA [3]", "value": "≤ 12", "unit": "h"},
      {"measurement": "antiproliferative effect", "setting": "ARH-77 myeloma cells", "value": "somewhat less than the effect on NCI-H929 cells"},
      {"measurement": "serum calcium levels", "setting": "[4]", "value": "10.2 ± 0.7", "unit": "mg/dL"}
    ]}
  ]
}
